ChEMBL document CHEMBL1135002, “Optimization of a pyrazolo[1,5-a]pyrimidine class of KDR kinase inhibitors: improvements in physical properties enhance cellular activity and pharmacokinetics” (Bioorg Med Chem Lett, 2002)

What was measured:
[1] = Partition coefficient (logP); format: physicochemical; conditions: octanol/water
[2] = The pharmacokinetic parameter volume of distribution in vivo in rats; format: ADME, organism-based; conditions: rat, read-out: Vdss
[3] = The pharmacokinetic parameter plasma clearance in vivo in rats; format: ADME, organism-based; conditions: rat, read-out: CI
[4] = The pharmacokinetic parameter half-life period in vivo in rats; format: ADME, organism-based; conditions: rat
[5] = Bioavailability in rat; format: ADME, organism-based; conditions: in vivo
[6] = molecular target: Vascular endothelial growth factor receptor 2 (Homo sapiens, UniProt P35968)
Description: Inhibition of Vascular endothelial growth factor receptor 2

[7] = molecular target: Vascular endothelial growth factor receptor (Homo sapiens, UniProt P17948+P35916+P35968); conditions: endothelial cell
Description: Inhibition of VEGF-stimulated mitogenesis in endothelial cells

Vascular endothelial growth factor receptor 2, sequence (P35968 whole entry): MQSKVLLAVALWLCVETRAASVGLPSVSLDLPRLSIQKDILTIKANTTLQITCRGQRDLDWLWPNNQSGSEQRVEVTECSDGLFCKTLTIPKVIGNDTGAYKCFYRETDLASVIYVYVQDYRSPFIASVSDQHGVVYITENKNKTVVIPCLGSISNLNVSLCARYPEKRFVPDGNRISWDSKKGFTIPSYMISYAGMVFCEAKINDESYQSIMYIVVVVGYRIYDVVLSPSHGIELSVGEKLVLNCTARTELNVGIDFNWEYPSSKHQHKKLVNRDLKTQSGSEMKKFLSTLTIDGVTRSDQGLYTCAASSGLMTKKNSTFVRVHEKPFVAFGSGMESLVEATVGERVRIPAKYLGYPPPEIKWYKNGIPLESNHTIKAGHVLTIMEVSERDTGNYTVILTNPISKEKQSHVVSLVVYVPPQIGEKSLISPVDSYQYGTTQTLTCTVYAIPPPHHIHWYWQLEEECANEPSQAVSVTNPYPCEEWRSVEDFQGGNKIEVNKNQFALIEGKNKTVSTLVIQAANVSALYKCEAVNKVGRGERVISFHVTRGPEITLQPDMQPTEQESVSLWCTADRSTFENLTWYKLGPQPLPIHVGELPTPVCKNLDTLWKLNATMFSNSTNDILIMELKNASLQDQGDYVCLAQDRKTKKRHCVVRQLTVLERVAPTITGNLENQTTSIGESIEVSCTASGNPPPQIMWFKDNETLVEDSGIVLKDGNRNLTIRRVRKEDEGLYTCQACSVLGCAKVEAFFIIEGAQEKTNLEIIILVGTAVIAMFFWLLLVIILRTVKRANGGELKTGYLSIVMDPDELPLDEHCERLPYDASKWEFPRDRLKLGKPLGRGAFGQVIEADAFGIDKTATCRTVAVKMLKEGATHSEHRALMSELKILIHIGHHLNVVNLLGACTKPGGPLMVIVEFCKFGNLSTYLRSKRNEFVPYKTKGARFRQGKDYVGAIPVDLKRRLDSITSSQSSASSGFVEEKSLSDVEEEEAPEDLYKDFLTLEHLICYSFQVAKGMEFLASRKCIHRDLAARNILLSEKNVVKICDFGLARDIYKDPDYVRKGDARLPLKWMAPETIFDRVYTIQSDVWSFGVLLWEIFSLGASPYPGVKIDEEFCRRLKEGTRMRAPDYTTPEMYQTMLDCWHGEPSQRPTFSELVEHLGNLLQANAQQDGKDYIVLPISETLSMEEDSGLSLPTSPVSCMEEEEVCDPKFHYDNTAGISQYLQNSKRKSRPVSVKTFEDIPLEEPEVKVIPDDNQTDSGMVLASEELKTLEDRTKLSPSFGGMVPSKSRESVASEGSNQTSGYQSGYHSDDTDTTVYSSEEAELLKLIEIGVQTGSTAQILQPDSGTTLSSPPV

| logP [1] | Vd [2] | half-life [4] | bioavailability [5] | IC50 [7] | further results | Structure (SMILES) |
| --- | --- | --- | --- | --- | --- | --- |
| 2.4 | – | – | – | – | – | O=c1cc(-c2cnc3c(-c4ccccc4)cnn3c2)ccn1CCCN1CCCCC1 |
| 2 | – | – | – | – | – | CN1CCN(CCCn2ccc(-c3cnc4c(-c5ccccc5)cnn4c3)cc2=O)CC1 |
| – | 6 L/kg | 3.3 h | 42% | 29 nM | clearance [3]: 23 mL/min/kg; IC50 [6]: 20 nM | c1cncc(-c2cnn3cc(-c4ccc(OCCN5CCCCC5)cc4)cnc23)c1 |
| 1.6 | 7.9 L/kg | 3.4 h | 56% | – | – | CN1CCN(CCCn2ccc(-c3cnc4c(-c5ccsc5)cnn4c3)cc2=O)CC1 |
| – | – | – | – | 31 nM | – | c1cc(-c2cnn3cc(-c4ccc(OCCN5CCOCC5)cc4)cnc23)ccn1 |
| – | – | – | – | 150 nM | – | COc1ccc(-c2cnc3c(-c4ccncc4)cnn3c2)cc1 |
| – | – | – | – | 32 nM | IC50 [6]: 9 nM | c1ccc(-c2cnn3cc(-c4ccc(OCCN5CCOCC5)cc4)cnc23)cc1 |
| > 4 | – | – | – | – | – | COc1ccc(-c2cnc3c(-c4ccsc4)cnn3c2)cc1 |
| > 4 | 16 L/kg | 5.1 h | 18% | – | – | c1cc(-c2cnn3cc(-c4ccc(OCCN5CCCCC5)cc4)cnc23)cs1 [L-21649] |
